For series [1], the system named is Staphylococcus aureus. Put plainly: Antibacterial activity against methicillin-sensitive Staphylococcus aureus ATCC 25923 assessed as bacterial growth inhibition resazurin dye based microplate analysis. The format is functional. In general terms: Resazurin is reduced to fluorescent resorufin, in cell work by metabolically active cells.
The test system of series [2] is Staphylococcus aureus. Kind of series: Antibacterial activity against methicillin-resistant Staphylococcus aureus ATCC 43300 assessed as bacterial growth inhibition resazurin dye based microplate analysis. The format is functional.
In series [3] the test system is Pseudomonas aeruginosa. Put plainly: Antibacterial activity against Pseudomonas aeruginosa ATCC 27853 assessed as bacterial growth inhibition resazurin dye based microplate analysis. In kind it is functional.
Series [4] relates to PC-3. Put plainly: Cytotoxicity against human PC-3 cells assessed as reduction in cell viability measured for 48 hrs by resazurin dye based assay. In kind it is functional. The settings on record: PC-3, 48 h.
The nature of series [5]: Cytotoxicity against human WPMY-1 cells assessed as reduction in cell viability measured for 48 hrs by resazurin dye based assay. In kind it is toxicity.

pIC50: −log10 of the molar value. ≈ marks a conversion by molar mass, not a printed value.

With `CCCCCCCCCC(=O)N(C)CCCNCCCNCCCNCCCCNCCCNCCCNCCCN(C)C(=O)CCCCCCC(C)C`, the results for the MIC90 in series [1], in series [2] and in series [3] were 8 µg/mL (≈ 10.4 µM), 16 µg/mL (≈ 20.9 µM) and 32 µg/mL (≈ 41.7 µM), respectively. The pIC50 – broadly, the IC50 on a negative log10 scale, so that one unit is a factor of ten – in series [4] was 5.47. In addition, the IC50 (usually the point on the concentration scale where inhibition reaches its midpoint) at 48 h in series [5] amounted to 4.3 µM.
With `COc1cccc2c1C(=O)c1c(O)c3c(c(O)c1C2=O)C[C@@](O)(C(=O)CO)C[C@@H]3O[C@H]1C[C@H](N)[C@H](O)[C@H](C)O1` [DOXORUBICIN], the pIC50 in series [4] is 6.22. For the same compound, the IC50 at 48 h in series [5] turned out to be 0.7 µM.
Take `CC[C@H]1OC(=O)[C@H](C)[C@@H](O[C@H]2C[C@@](C)(OC)[C@@H](O)[C@H](C)O2)[C@H](C)[C@@H](O[C@@H]2O[C@H](C)C[C@H](N(C)C)[C@H]2O)[C@](C)(O)C[C@@H](C)C(=O)[C@H](C)[C@@H](O)[C@]1(C)O` [ERYTHROMYCIN]: the MIC90 – broadly, an inhibitory concentration at the 90% level, which refers to growth in some studies and to a panel of isolates in others – in series [1] worked out at 2 µg/mL (≈ 2.73 µM).
On to `CC(=O)O[C@H]1C[C@@]2(C)[C@@H](C[C@@H](O)[C@H]3[C@@]4(C)CC[C@@H](O)[C@@H](C)[C@@H]4CC[C@@]32C)/C1=C(\CCC=C(C)C)C(=O)O` [FUSIDIC ACID], for which, in series [2], the MIC90 amounted to 0.25 µg/mL (≈ 0.484 µM).
In the case of `NC[C@H]1O[C@H](O[C@H]2[C@H](O)[C@@H](O[C@H]3O[C@H](CO)[C@@H](O)[C@H](N)[C@H]3O)[C@H](N)C[C@@H]2N)[C@H](N)C[C@@H]1O` [TOBRAMYCIN], the MIC90 in series [3] came to 1 µg/mL (≈ 2.14 µM).
Turning to `CCCCCCCCCC(=O)N(C)CCCNCCCNCCCNCCCCNCCCNCCCNCCCN(C)C(=O)CCCCCCCC(C)C`, the MIC90 in series [1] was found to be 32 µg/mL (≈ 41 µM); in series [2], 32 µg/mL (≈ 41 µM); in series [3], 64 µg/mL (≈ 81.9 µM). Further, in series [4], the pIC50 was 5.39. Further, the IC50 at 48 h in series [5] amounted to 4.1 µM.

The values are drawn from ChEMBL document CHEMBL5252577, “Amphiphilic Polyamine α-Synuclein Aggregation Inhibitors from the Sponge Aaptos lobata” (J Nat Prod, 2023).
